Laboratory results as given in patent US20220041606A1, “POSITIVE ALLOSTERIC MODULATORS OF THE MUSCARINIC ACETYLCHOLINE RECEPTOR M1” (Vanderbilt University, priority 2020, published 2022).

What was measured:
[1] = molecular target: T1, human mAChR M1 (Homo sapiens, UniProt P11229); test: mAChR M1 cell-based functional assay (calcium mobilization), PAM activity: increase in the EC20 acetylcholine response; settings: CHO-K1 cells expressing hM1; potentiation of EC20 acetylcholine response
T1 construct: host or cells: CHO-K1 cells (ATCC), stably transfected using Lipofectamine2000
T1 sequence (P11229 1-460): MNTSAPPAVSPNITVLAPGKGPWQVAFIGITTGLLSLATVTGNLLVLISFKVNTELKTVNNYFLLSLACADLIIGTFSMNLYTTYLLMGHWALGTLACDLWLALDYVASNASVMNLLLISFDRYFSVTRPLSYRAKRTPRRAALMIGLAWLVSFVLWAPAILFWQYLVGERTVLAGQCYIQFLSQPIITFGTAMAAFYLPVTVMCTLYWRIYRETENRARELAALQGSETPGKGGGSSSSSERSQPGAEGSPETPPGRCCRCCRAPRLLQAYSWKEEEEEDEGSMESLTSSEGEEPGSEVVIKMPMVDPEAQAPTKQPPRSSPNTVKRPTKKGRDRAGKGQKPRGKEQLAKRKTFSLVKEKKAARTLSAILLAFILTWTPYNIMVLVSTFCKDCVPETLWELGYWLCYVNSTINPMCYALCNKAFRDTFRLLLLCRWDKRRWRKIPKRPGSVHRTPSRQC
Method in brief: (§1)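 CHO-K1 cells stably expressing hM1, loaded with Fluo-4 AM; calcium flux read on FDSS 6000. Compound (11-point, 1:3 CRC) added at 4 s, EC20 acetylcholine at 144 s, EC80 at 230 s; agonism from response to compound alone, PAM from increase in EC20 response; Emax relative to acetylcholine maximum, four-parameter fit.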

[2] = molecular target: T1, human mAChR M1; test: mAChR M1 cell-based functional assay (calcium mobilization), agonist activity upon compound addition; settings: CHO-K1 cells expressing hM1; for EC50: compound alone, before acetylcholine addition; for Emax: relative to the maximum for acetylcholine
Method in brief: as §1

EC50 [1] [µM]	Emax [1] [%]	EC50 [2] [µM]	Emax [2] [%]	Structure (SMILES)
0.6	45	> 10	< 5	Cn1ccc(-c2ccc(Cn3cc(C(=O)N[C@H]4CCC[C@@H]4O)c4ncn(C)c4c3=O)c(F)c2)n1 [Compound C2, 5-(2-fluoro-4-(1-methyl-1H-pyrazol-3-yl)benzyl)-N-((1S,2S)-2-hydroxycyclopentyl)-3-methyl-4-oxo-4,5-dihydro-3H-imidazo[4,5-c]pyridine-7-carboxamide]
0.31	60	> 10	< 5	Cn1ccc(-c2ccc(Cn3cc(C(=O)N[C@H]4CCCCC[C@@H]4O)c4ncn(C)c4c3=O)c(F)c2)n1 [Compound C3, 5-(2-fluoro-4-(1-methyl-1H-pyrazol-3-yl)benzyl)-N-((1S,2S)-2-hydroxycycloheptyl)-3-methyl-4-oxo-4,5-dihydro-3H-imidazo[4,5-c]pyridine-7-carboxamide]
0.31	58	> 10	< 5	Cn1cc2c(-c3cc(F)c(Cn4cc(C(=O)N[C@H]5CCOC[C@@H]5O)c5ncn(C)c5c4=O)c(F)c3)cccc2n1 [Compound C4, 5-(2,6-difluoro-4-(2-methyl-2H-indazol-4-yl)benzyl)-N-((3R,4S)-3-hydroxytetrahydro-2H-pyran-4-yl)-3-methyl-4-oxo-4,5-dihydro-3H-imidazo[4,5-c]pyridine-7-carboxamide]
0.17	43	> 10	< 5	Cn1cnc2c(C(=O)N[C@H]3CCCC[C@@H]3O)cn(Cc3ccc(-n4cccn4)cc3)c(=O)c21 [Compound C6, 5-(4-(1H-pyrazol-1-yl)benzyl)-N-((1S,2S)-2-hydroxycyclohexyl)-3-methyl-4-oxo-4,5-dihydro-3H-imidazo[4,5-c]pyridine-7-carboxamide]
> 10	25	> 10	< 5	CC1(C)COCCC1NC(=O)c1cn(Cc2ccc(-n3cccn3)cc2)c(=O)c2ccoc12 (stereo not drawn) [Compound D1, 5-(4-(1H-pyrazol-1-yl)benzyl)-N-(3,3-dimethyltetrahydro-2H-pyran-4-yl)-4-oxo-4,5-dihydrofuro[3,2-c]pyridine-7-carboxamide]
> 10	57	> 10	< 5	O=C(N[C@H]1CCOC[C@@H]1O)c1cn(Cc2ccc(-n3cccn3)cc2)c(=O)c2ccoc12 [Compound D2, 5-(4-(1H-pyrazol-1-yl)benzyl)-N-((3R,4S)-3-hydroxytetrahydro-2H-pyran-4-yl)-4-oxo-4,5-dihydrofuro[3,2-c]pyridine-7-carboxamide]
5.12	62	> 10	< 5	O=C(N[C@H]1CCCC[C@@H]1O)c1cn(Cc2ccc(-n3cccn3)cc2)c(=O)c2ccoc12 [Compound D3, 5-(4-(1H-pyrazol-1-yl)benzyl)-N-((1S,2S)-2-hydroxycyclohexyl)-4-oxo-4,5-dihydrofuro[3,2-c]pyridine-7-carboxamide]
> 10	34	> 10	< 5	O=C(N[C@H]1CCC[C@@H]1O)c1cn(Cc2ccc(-n3cccn3)cc2)c(=O)c2ccoc12 [Compound D4, 5-(4-(1H-pyrazol-1-yl)benzyl)-N-((1S,2S)-2-hydroxycyclopentyl)-4-oxo-4,5-dihydrofuro[3,2-c]pyridine-7-carboxamide]
> 10	58	> 10	< 5	O=C(N[C@H]1CCCCC[C@@H]1O)c1cn(Cc2ccc(-n3cccn3)cc2)c(=O)c2ccoc12 [Compound D5, 5-(4-(1H-pyrazol-1-yl)benzyl)-N-((1S,2S)-2-hydroxycycloheptyl)-4-oxo-4,5-dihydrofuro[3,2-c]pyridine-7-carboxamide]
